Experimental data: US6451852B2, “Phenylacetonitrilealkylaminoalkyl-ortho-substituted aryl compounds as immunosuppressives” (G. D. Searle & Co., priority 1989, dated 2002)
Where a name gives a salt, the structure may show the parent alone.

Columns and labels:
[1] = test system: excised aortic segment (Ca++ induced vascular smooth muscle contraction); test: Assay F: Calcium Antagonist Effects; settings: K+ (100 mM) depolarized aortic segment, 1 hr incubation with test compound at 10^-6M
Experimental: Assay F: Calcium Antagonist Effects
An excised aortic segment was mounted in a tissue bath containing modified Krebs solution. After depolarization of the tissue with K^+ (100 mM), Ca^++, in cumulative concentrations of 10^−3M, 3.2×10^−3M and 10^−2M, was injected into the bath to produce vascular smooth muscle contraction. The developed tension (g) was measured and control dose-response values are obtained. After 1 hr incubation with a test compound at 10^−6M concentration, the same doses of Ca^++ are repeated. The log dose-response curves of control and after treatment were analyzed by linear regression.

adult male SHR = test: Assay G: Calcium Channel Blocker Effects (vascular resistance, microspheres); assay type: in vivo, rat; settings: I.V. bolus of 1.0 mg/kg, Control (DMSO) 240
Experimental: Assay G: Calcium Channel Blocker Effects
Under ether anesthesia, the jugular vein, femoral artery and left ventricle of adult male SHR were cannulated. After a 3-5 hour recovery period, animals ere treated with either test compound or placebo. Ten minutes was allowed for steady state conditions to be reached. Arterial pressure was then monitored via the femoral cannula. Immediately after this measurement, the reference blood sample was taken and radioactively-labeled microspheres were injected into the left ventricle. Rats were then sacrificed; organs were removed, weighed and counted. Cardiac output was computed. Percent cardiac output distribution per gram tissue, flow per gram tissue, and resistance times gram tissue were calculated fro the following organs: brain, heart, kidneys, splanchnic organs (liver plus pancreas, spleen and G. I. tract), skeletal muscle and skill. The tested compound was administered as an I.V. bolus of 1.0 mg/kg. Differences in mean values between treatment and control groups were analyzed by a one-way one variable analysis and least significant difference test.

[2] = test system: anesthetized spontaneously hypertensive rat; test: Assay H: Blood Pressure Reducing Effects; assay type: in vivo; settings: intragastrically at 10^-3M, readings 1, 2, 3 and 4 hours after administration
Experimental: Assay H: Blood Pressure Reducing Effects
Systemic blood pressure effects were assessed in vivo in an anesthetized spontaneously hypertensive rat. The test compound was administered intragastrically at 10^−[…]. Initial mean arterial blood pressure (MAP) was measured directly via a previously implanted arterial catheter immediately before administration of the compound. Blood pressure readings were made 1, 2, 3, and 4 hours after administration of the test compound.

[3] = test system: human peripheral blood mononuclear cells (PMNC) cocultured with mitomycin-C inactivated Raji stimulator cell line; test: Assay C: One-Way Mixed Lymphocyte Reaction (Human); assay type: cell-based; settings: one-way MLR, human PMNC vs Raji, 120 hours, 3H-thymidine
Source text: Assay C: One-Way Mixed Lymphocyte Reaction (Human)
The mixed lymphocyte reaction (MLR) is an assay that measures T-cell blast cell transformation and mitosis which occurs when lymphocytes from different major and minor histocompatibility complex (MHC) haplotypes are cocultured. This response is considered a “one-way MLR” when stimulator cells are made unresponsive by inhibition of DNA synthesis (treatment with mitomycin-C or gamma-irradiation) prior to coculture with responder cells. This assay can be used as an indicator of the cellular immunomodulation mechanisms involved in transplant rejection. In this assay, human peripheral blood mononuclear cells(PMNC) were used as the responder cell population and were isolated from normal donor blood as follows: Blood samples were collected in LeucoPREP™ tubes (Becton Dickinson, Lincoln Park, N.J.) and the mononuclear cell preparation was obtained by following the manufacturers procedures. Isolated mononuclear cells were co-incubated at 6×10^4 cells/well with a stimulator cell line at 2×10^4 cells/well in RPMI 1640 medium containing 5% fetal bovine serum and 2-mercaptoethanol (40 μM). The stimulator cell line, Raji, which was derived from a human Burkitt lymphoma (American Type Culture Collection, Rockville Md.) was previously inactivated by mitomycin-C treatment (Sigma, St. Louis Mo., 25 μg/ml, 370 for 30 minutes). After repeated washings of mitomycin-C from the stimulator cell line, cocultures were incubated in 96 well microtiter plates at 37° C., in 95% air/5% CO2 atmosphere for 120 hours in the presence or absence of test compounds (0.1-25 μM). Inhibition of proliferation was measured by reduced incorporation of ^3H-thymidine (0.5 μCi/well, added during the last 24 hours of the assay). The IC50 values for the immunosuppressant compounds were calculated by four parameter logistic regression analysis of the results [Delean et al, Id.]

[4] = test system: ConA-stimulated spleen cells from female Balb/c mice; test: Assay A: Suppression of Mitogen-Stimulated Proliferation (Murine); assay type: cell-based, mouse; settings: inhibition of ConA-stimulated proliferation of murine spleen cells, 5 days, MTT
Source text: Assay A: Suppression of Mitogen-Stimulated Proliferation (Murine)
It is known that lymphocyte activation can be polyclonally stimulated by plant lectins and other mitogens that induce blast transformation and mitosis. Certain mitogens like Concanavalin A (ConA), preferentially activate T-lymphocytes. Exposure to ConA results in polyclonal activation of T-cells and can be used as an in vitro index for general immunomodulation of pan T-cell activity. In this assay spleen cells harvested from female Balb/c mice were incubated at 37° C., in 95% air/5% CO2 atmosphere in 96 well microtiter plates (10^5 cells/well) for 5 days with Iscove's modified Dulbecco's medium [25 mM HEPES 2 mM L-glutamine, 5% fetal bovine serum and 2-mercaptoethanol (40 μM)] (100 μl/well), concanavalin A (ConA) alone (Sigma, St. Louis, Mo.; 1.0 μg/ml) or ConA in the presence of test compounds (0.001-25 μM). Inhibition of ConA-stimulated proliferation was measured by calorimetric indicator of growth and proliferation, MTT (3-(4,5-dimethylthiazol-2-yl)-2 diphenyl tetrazolium bromide; (100 μl/well, 1 mg/ml) Sigma) [Mosmann, T., J. of Immunological Methods, 65, 55-63, […]]. After four hours, plates were centrifuged (1200 rpm) media supernatants aspirated and dye loaded cells were solubilized in isopropanol (150 μl/well). The absorbance was measured on an ELISA plate reader with a test wavelength of 570 nm and a reference of 630 nm. The IC50 values for active immunosuppressant compounds were calculated by four parameter logistic regression analysis of the results [Delean et al, Am. J. Physiol., 2, 397 (1978)].

[5] = test system: PHA stimulated human donor peripheral blood mononuclear cells (PMNC); test: Assay B: Suppression of Human Mitogen Stimulation; assay type: cell-based; settings: inhibition of PHA stimulated proliferation of human PMNC, 96 hrs, 3H-thymidine
Experimental: Assay B: Suppression of Human Mitogen Stimulation Assay
Normal human donor peripheral blood mononuclear cells (PMNC) were isolated by density centrifugation using Ficoll-Paque(Pharacia LKB, Uppsala Sweden, 350 RCF 45 minutes). Cells were washed and incubated at 37° C. in 95%air/5% CO2 atmosphere in 96 well microtiter plates (2×10^5 cells/well) for 96hrs with RPMI 1640 medium containing 5% fetal bovine serum and 2-mercaptoethanol ([…]), Phytohemagglutinin (Difco, Detroit, MI 10 μg/ml) in the presence or absence of test compounds. Inhibition of PHA stimulated proliferation was measured by reduced incorporation of ^3H-thymidine (0.5 μCi/well, added during the last 24 hours of the assay). When possible, the IC50 values for active immunosuppressant compounds were calculated by four parameter logistic regression analysis of the results [Delean et al, DE ].

Human mononuclear cells = test: Assay D: Calcium Flux Assay (human mononuclear cells); assay type: cell-based; settings: at 2×, 5× and 10× the IC50 values of Assay A
Source text: Assay D: Calcium Flux Assay
One of the earliest requirements of lymphocyte activation involves the rapid mobilization of intracellular calcium and the sustained influx of extracellular calcium. These cellular responses to lymphocyte activators can be measured by calcium-binding fluorescent dyes such as Indo-1 [P. S. Rabinovitch, et al J. Immunol, 137, 952 (1986)]. The rapid and sustained changes in intracellular calcium can be used to discriminate classes of immunomodulatory compounds which alter early events in lymphocyte activation. Human mononuclear cells or the human Jurkat T-cell line (ATCC, Rockville Md.) were loaded with the calcium-sensitive dye, Indo-1 (5 μM), washed and incubated for 2-5 minutes in the presence or absence of test compounds. Calcium flux was initiated in lymphocytes by the binding of crosslinked antibody to the T cell receptor(αCD3 at 250 ng/ml followed by goat-anti-mouse IgG) or the lectin Phytohemagglutinin (PHA, 100 ug/ml). Jurkat cell activation was initiated by the addition of purified antibody to the T cell receptor (αCD3, 250 ng/ml). Subsequent changes in the concentration if intracellular calcium was monitored over time (6 min) by flow cytometry (Epics 753, Coulter Electronics, Hialeah Fla.) to determine modulation of the initial calcium-mediated activation of the cells [P. S. Rabinovitch, et al, E]. […]

Compound | IC50 [3] [µM] | IC50 ([4]; Mus musculus, 120 h) [µM] | IC50 ([5]; Homo sapiens, PBMC) [µM] | further results
COC(=O)c1cc(OC)c(OC)cc1CCN(C)CCCC(C#N)(c1ccc(OC)c(OC)c1)C(C)C (stereo not shown) [Example 1, methyl 2-[2-[[4-cyano-4-(3,4-dimethoxyphenyl)-5-methylhexyl]methylamino]ethyl]-4,5-dimethoxybenzoate] | – | – | – | pA2 [1]: 6.81
COc1ccc(C(C#N)(CCCN(C)CCc2cc(OC)c(OC)cc2C)C(C)C)cc1OC (stereo not drawn) [Example 6, α-[3-[[2-(4,5-dimethoxy-2-methylphenyl)ethyl]methylamino]propyl]-3,4-dimethoxy-α-(1-methylethyl)benzeneacetonitrile, 2,3-dihydroxybutanedioic acid salt] | – | – | – | vascular resistance in the brain (adult male SHR): 149 mm Hg min. g/ml
COC(=O)c1cc(OC)c(OC)cc1CCN(C)CCCC(C#N)(c1ccc(OC)c(OC)c1)C(C)C (stereo not shown) [Example 3, methyl 2-[2-[[4-cyano-4-(3,4-dimethoxyphenyl)-5-methylhexyl]methylamino]ethyl]-4,5-dimethoxybenzoate, 2,3-dihydroxybutanedioic acid salt] | – | – | – | IC50 [4]: 8.7 µM; IC50 [5]: 5.3 µM

More lines, main results first:

IC50 [3] [µM] | Compound | IC50 ([4]; Mus musculus, 120 h) [µM] | IC50 ([5]; Homo sapiens, PBMC) [µM] | further results
8.9 | COc1ccc(C(C#N)(CCCN(C)CCc2cc(OC)c(OC)cc2C(=O)NC(C)(C)C)C(C)C)cc1OC (stereo not shown) [Example 4, 2-[2-[[4-cyano-4-(3,4-dimethoxyphenyl)-5-methylhexyl]methylamino]ethyl]-N-(1,1-dimethylethyl)-4,5-dimethoxybenzamide, 2-hydroxy-1,2,3-propanetricarboxylic acid salt] | 13.3 | 9.9 | Decrease in MAP [2]: 18 mm Hg; pA2 [1]: 6.56
4.3 | COC(=O)c1cc(OC)c(OC)cc1CCN(C)CCCC(C#N)(c1ccc(OC)c(OC)c1)C(C)C (stereo not shown) [Example 2, methyl 2-[2-[[4-cyano-4-(3,4-dimethoxyphenyl)-5-methylhexyl]methylamino]ethyl]-4,5-dimethoxybenzoate, 2-hydroxy-1,2,3-propanetricarboxylic acid salt] | 7.1 | 5.4 | –
15.5 | COc1ccc(C(C#N)(CCCN(C)CCc2cc(OC)c(OC)cc2/C=C/C(C)=O)C(C)C)cc1OC (stereo not drawn) [Example 7, α-[3-[[2-[4.5-dimethoxy-2-(3-oxo-1E-butenyl)phenyl]ethyl]methylamino]-propyl]-3,4-dimethoxy-α-(1-methylethyl)benzeneacetonitrile] | 7.9 | – | –
20.2 | CCNC(=O)c1cc(OC)c(OC)cc1CCN(C)CCCC(C#N)(c1ccc(OC)c(OC)c1)C(C)C (stereo not shown) [Example 5, 2-[2-[[4-cyano-4-(3,4-dimethoxyphenyl)-5-methylhexyl]methylamino]ethyl]-N-ethyl-4,5-dimethoxybenzamide, 2,3-dihydroxybutanedioic acid salt] | > 25 | > 25 | Decrease in MAP [2]: 20 mm Hg; inhibition of calcium flux (Human mononuclear cells): inhibited calcium flux in a dose dependent manner
